Measured values published in article PMC7151106 (Pharmaceutics, 2020).

What was measured:
Format in all cases: cell-based
[1] = target: T1, SGLT2 (Homo sapiens, UniProt P31639); assay: Recovery of SGLT2 activity after washout following 24 h exposure in CHO-SGLT2 cells
T1 construct: host or cells: CHO
T1 sequence (P31639 1-672): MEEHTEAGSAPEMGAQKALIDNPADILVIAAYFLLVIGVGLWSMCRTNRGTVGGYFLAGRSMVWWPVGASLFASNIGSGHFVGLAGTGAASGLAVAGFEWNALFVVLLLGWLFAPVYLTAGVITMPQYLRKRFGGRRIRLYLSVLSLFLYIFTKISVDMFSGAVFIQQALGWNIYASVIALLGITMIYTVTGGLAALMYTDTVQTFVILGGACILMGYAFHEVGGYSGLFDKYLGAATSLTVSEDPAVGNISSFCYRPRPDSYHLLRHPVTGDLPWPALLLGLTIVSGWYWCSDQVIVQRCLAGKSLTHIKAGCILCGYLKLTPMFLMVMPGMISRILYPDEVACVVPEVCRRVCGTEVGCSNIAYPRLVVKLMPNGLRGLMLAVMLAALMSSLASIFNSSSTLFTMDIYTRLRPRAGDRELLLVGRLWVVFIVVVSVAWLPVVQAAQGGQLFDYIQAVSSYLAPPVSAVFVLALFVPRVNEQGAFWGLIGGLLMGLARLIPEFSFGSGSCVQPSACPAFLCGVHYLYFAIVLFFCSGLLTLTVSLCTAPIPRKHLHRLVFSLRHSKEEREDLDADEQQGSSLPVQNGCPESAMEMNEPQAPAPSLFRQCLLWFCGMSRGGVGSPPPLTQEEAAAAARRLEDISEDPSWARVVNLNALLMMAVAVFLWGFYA
Description: After 24 h, the RPMI1640 medium was replaced with pre-warmed fresh RPMI1640 medium and incubated for 1, 2, 3, 5, and 6 h, and proceeded another pre-incubation with Na^+-free buffer for 1 h. Then, after replacing Na^+-free buffer with Na^+ gradient buffer containing 10 µM [^14C]AMG, the uptake of [^14C]AMG into the CHO-SGLT2 cells was measured for 2 h. After 2 h of incubation, the radioactivity of the cell lysate was measured following the same sample preparation method described above.

[2] = target: T1, SGLT2; assay: Mode of inhibition on SGLT2 (Dixon plots) in CHO-SGLT2 cells; details: 1, 2.5, 5, 50 μM [14C]AMG
Description: The radioactivity of the cell lysate was measured following the same sample preparation method described above.

[3] = target: T2, SGLT1 (Homo sapiens, UniProt P13866); assay: Inhibition of [14C]AMG uptake in CHO-SGLT1 cells; details: 10 μM [14C]AMG uptake, 2 h, CHO-SGLT1 minus mock; mean ± SD, triplicate
T2 construct: host or cells: CHO
T2 sequence (P13866 1-664): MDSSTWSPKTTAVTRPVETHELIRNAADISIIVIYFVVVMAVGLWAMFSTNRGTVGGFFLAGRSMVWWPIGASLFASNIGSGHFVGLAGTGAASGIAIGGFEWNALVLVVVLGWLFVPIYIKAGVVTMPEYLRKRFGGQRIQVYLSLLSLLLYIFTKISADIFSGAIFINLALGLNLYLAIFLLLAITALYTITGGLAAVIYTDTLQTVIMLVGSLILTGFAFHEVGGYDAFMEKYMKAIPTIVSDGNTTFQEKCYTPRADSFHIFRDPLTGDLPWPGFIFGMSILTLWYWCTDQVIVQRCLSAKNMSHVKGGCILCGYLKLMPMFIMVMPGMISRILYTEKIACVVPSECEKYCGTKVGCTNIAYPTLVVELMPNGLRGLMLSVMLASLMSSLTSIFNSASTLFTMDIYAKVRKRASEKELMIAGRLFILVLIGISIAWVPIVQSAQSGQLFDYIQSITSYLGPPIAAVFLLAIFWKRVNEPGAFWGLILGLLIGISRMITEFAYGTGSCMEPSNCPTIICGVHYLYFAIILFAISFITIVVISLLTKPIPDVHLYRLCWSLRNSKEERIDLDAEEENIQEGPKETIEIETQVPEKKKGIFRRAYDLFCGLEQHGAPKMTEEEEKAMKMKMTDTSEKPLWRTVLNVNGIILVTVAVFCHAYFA
Description: (§1) CHO cells overexpressing SGLT1 and SGLT2 cells (CHO-SGLT1 and -SGLT2) and CHO-mock cells were characterized as previously described. Cells were maintained in RPMI1640 medium supplemented with 10% fetal bovine serum and 200 µg/mL G418 at 37 °C in 5% CO2 conditions. CHO-SGLT1 and -SGLT2 cells were seeded at a density of 1 × 10^5 cells/well in 96-well plates. After 24 h, the growth medium was discarded from the cells, and the cells were washed with pre-warmed Na^+-free buffer (10 mM HEPES, 5 mM Tris, 140 mM choline chloride, 2 mM KCl, 1 mM CaCl2, 1 mM MgCl2, pH7.4) and incubated for 1 h in Na^+-free buffer. After replacing Na^+-free buffer with Na^+ gradient buffer (10 mM HEPES, 5 mM Tris, 140 mM NaCl, 2 mM KCl, 1 mM CaCl2, 1 mM MgCl2, pH7.4) containing 10 µM [^14C]AMG, the uptake of [^14C]AMG into the CHO-mock cells and CHO-SGLT1 and -SLGT2 cells was measured for 0.5, 1, 1.5, 2, and 3 h. After a predetermined incubation time, cells were washed three times with 200 µL of ice-cold Na^+-free buffer immediately after placing the plates on ice. Then, the cells were lysed with 10% SDS, and the cell lysates were mixed with Optiphase cocktail solution. Thereafter, the radioactivity of the cell lysates was measured using a liquid scintillation counter.
(§2) After 2 h, cells were washed three times with 200 µL of ice-cold Na^+-free buffer and the cells were lysed with 10% SDS (40 µL), followed by adding Optiphase cocktail solution (200 µL). The radioactivity of the cell lysates was measured using a liquid scintillation counter. The SGLT1 or SGLT2-mediated uptake of [^14C]AMG was calculated by the subtraction of the uptake rates of [^14C]AMG into the mock cells from those of the CHO-SGLT1 and -SLGT2 cells. In the inhibition studies, the percentages of the transport rate of AMG with or without SGLT2 inhibitors were calculated and the data were fitted to an inhibitory effect model. The IC50 (the concentration of the inhibitor to show half-maximal inhibition) values were calculated using Sigma Plot ver.10.0 (Systat Software, Inc.; San Jose, CA, USA).

[4] = target: T1, SGLT2; assay: Time dependency of SGLT2 inhibition (preincubation) in CHO-SGLT2 cells; details: for IC50: 10 μM [14C]AMG, 2 h, CHO-SGLT2; for Time dependency of SGLT2 inhibition: pretreatment 0, 1, 2 h
Description: After 2 h of incubation, the radioactivity of the cell lysate was measured following the same sample preparation method described above.

[5] = target: T1, SGLT2; assay: Inhibition of [14C]AMG uptake in CHO-SGLT2 cells; details: for IC50: 10 μM [14C]AMG uptake, 2 h, CHO-SGLT2 minus mock, mean ± SD, triplicate
Description: as §1, §2

[6] = without preincubation, read-out: IC50 (0 h)

Row | Compound | Time after drug removal at which SGLT2 activity had not recovered ([1]; 200 nM) | Mode of inhibition on SGLT2 [2] | IC50 [3] | IC50 ([4]; IC50 (1 h), preincubation 1 h) | IC50 ([4]; IC50 (2 h), preincubation 2 h) | Time dependency of SGLT2 inhibition [4] | IC50 [4, 6] | Selectivity (IC50 Ratio of SGLT1/SGLT2) [5] | IC50 [5] | Time after drug removal to recovery of SGLT2 activity to the control level ([1]; 0.2–200 nM)
1 | OC[C@H]1O[C@@H](c2cc(Cc3ccc(C4CC4)cc3)c(Cl)c3c2CCO3)[C@H](O)[C@@H](O)[C@@H]1O [DWP16001] | 8 h | reversible and competitive | 549 ± 140 nM | 0.7 nM | 0.8 nM | time-independent | 0.7 nM | 667 | 0.8 ± 0.3 nM | 
2 | OC[C@H]1O[C@@H](c2ccc(F)c(Cc3cc4ccccc4s3)c2)[C@H](O)[C@@H](O)[C@@H]1O [Ipragliflozin, ipragliflozin] |  | reversible and competitive | 2330 ± 378 nM | 11 nM | 9.9 nM | time-independent | 10.6 nM | 261 | 8.9 ± 1.7 nM | 4 h
